Data set [1] can be described thus: Assay 6 in vitro metabolic stability in cryopreserved human hepatocytes (CL, Fmax). Format: in vitro ADME. To be noted: 1 μM test compound; for Clblood: hepatic in vivo blood clearance calculated (well-stirred) from half-life in cryopreserved human hepatocytes; for Fmax: maximal oral bioavailability calculated from half-life in cryopreserved human hepatocytes. Summed up: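 Test compound at 1 μM incubated with cryopreserved human hepatocytes (1.0×10^6 viable cells/ml, WME with 5% FCS) under shaking, with samples taken from 2 to 90 min, methanol-quenched and analysed by LC-MS/MS. Half-life gave intrinsic clearance, scaled with liver blood flow and hepatocellularity to CL and Fmax.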

The next data set relates to HeLa cells. Briefly: Assay 2 cell proliferation measurement, HeLa. In kind it is cell-based. The following applies: Homo sapiens, Cervical, read-out: Anti-proliferation IC50 [nM] HeLa. Here is the method:
(§1) Cell Proliferation Measurement
(§2) The antiproliferative activity of the compounds of the general formula (I) was examined in vitro in human cancer cells. For this purpose, 500 cells, including HeLa cells, A2058 cells, DU145 cells, HMCB cells, IGR37 cells, NCIH1734 cells, OSRC2 cells, or 750 cells, including CAL51 cells, COL0741 cells, DBTRG05MG cells, DKMG cells, G292CLONEA141B1 cells, GB1 cells, HEL cells, HEL9217 cells, JHUEM1 cells, L3.3 cells, LI7 cells, TE4 cells, or 1000 cells, including 8505C cells, HUT78 cells, NCIH1563 cells, NCIH2122 cells, NCIH2172 cells, RVH421 cells, SKMEL3 cells, or 1500 cells, including C32 cells, HS578T cells, JHOM1 cells, NCIH196 cells, OVKATE cells, were plated in 384-well plates with appropriate growth medium and incubated at 37° C. overnight. After 24 h, the cells on the test plate were treated with the compounds of the general formula (I) as and incubated at 37° C. for 72 h. The compounds were added to the cells by means of an HP D300 digital dispenser in a 10 (or more)-step dilution series. As control, the cells were treated with vehicle (DMSO at 0.3% final concentration). After 72 h, the cells were treated with 20 μl/well of 50% CTG solution in PBS (Promega Cell Titer Glo (catalogue #G755B and G756B)) and incubated at room temperature for 10 min, and luminescence was measured by means of a VICTOR V (Perkin Elmer), in order to determine cell viability at the end of treatment. The percentage effect on cell growth and the IC50 derived therefrom were determined for each test substance using the values from untreated wells (=percent viability). The IC50 values were calculated using a 4-parameter fit.

In the next data set the test system is HS578T cells. Briefly: Assay 2 cell proliferation measurement, HS578T. Format: cell-based. The following applies: Homo sapiens, Hs-578T, Breast, ductal carcinoma, read-out: Anti-proliferation IC50 [nM] HS578T. Here is the method: as §1, §2
In the next data set the test system is SK-MEL-3 cells. The experiment in a line: Assay 1 cell proliferation measurement (CTG, 72 h), SK-MEL-3. Format: cell-based, human. The following applies: Homo sapiens, SK-MEL3; Assay 1, 72 h, Cell Titer Glo; read-out: SK-MEL-3 IC50 [nM] (melanoma). The method in brief:
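Growth inhibition relative to a 0 h baseline plate and 0.3% DMSO control, with IC50 fitted by 4-parameter curve. Compound exposure lasted 72 h at 37 °C across a 2.5-fold, 10-step series starting generally at 100 nM final.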
On the technique in general: ATP-based viability assays read luminescence as a measure of living cells.

The next data set deals with DK-MG cells. Briefly: Assay 1 cell proliferation measurement, DK-MG. Format: cell-based. The following applies: Homo sapiens; Glioblastoma; read-out: Anti-proliferation IC50 [nM] DK-MG.
The subject of the next data set is Hs 578T cells. Briefly: Assay 1 cell proliferation measurement, Hs 578T. In kind it is cell-based. The following applies: Homo sapiens, Breast, read-out: Anti-proliferation IC50 [nM] Hs 578T.

As to `C[C@@H]1OC(=O)NN=C1c1ccc(-c2ccc(F)cc2)c(C(F)(F)F)c1` [Example 135, (6S)-5-[4′-Fluoro-2-(trifluoromethyl)biphenyl-4-yl]-6-methyl-3,6-dihydro-2H-1,3,4-oxadiazin-2-one], the Clblood in data set [1] was 16.3 mL/min/kg. Also, the Fmax in data set [1] is 26%. In addition, the values for the IC50 with HeLa cells, with HS578T cells and with SK-MEL-3 cells were 2 nM, 33 nM and 3 nM, respectively.

For `O=C1NN=C(c2ccc(-c3ccc(F)cc3)c(C(F)(F)F)c2)CO1` [Example 3, 5-[4′-Fluoro-2-(trifluoromethyl)biphenyl-4-yl]-3,6-dihydro-2H-1,3,4-oxadiazin-2-one], the IC50 with DK-MG cells was determined as 21 nM; with SK-MEL-3 cells, 7 nM; in the data set on Hs 578T cells, 29 nM. The Clblood in data set [1] was 6.5 mL/min/kg. The Fmax in data set [1] is recorded as 70%.

Take `C[C@@H]1OC(=O)NN=C1c1ccc(-n2ccc(C(F)(F)F)n2)c(C(F)(F)F)c1` [Example 265, (6S)-6-Methyl-5-{3-(trifluoromethyl)-4-[3-(trifluoromethyl)-1H-pyrazol-1-yl]phenyl}-3,6-dihydro-2H-1,3,4-oxadiazin-2-one]: the Clblood in data set [1] is 8.5 mL/min/kg. Moreover, the Fmax in data set [1] is reported as 61%. Moreover, the IC50 with HeLa cells was determined as 5 nM; in the data set with HS578T cells, 116 nM; in the data set with SK-MEL-3 cells it was 5 nM.

Consider `O=C1NN=C(c2ccc(-c3ccc(Cl)cc3)c(C(F)(F)F)c2)CO1` [Example 31, 5-[4′-Chloro-2-(trifluoromethyl)biphenyl-4-yl]-3,6-dihydro-2H-1,3,4-oxadiazin-2-one], for which the results for the IC50 in the data set on DK-MG cells, with SK-MEL-3 cells and in the data set with Hs 578T cells were 39 nM, 11 nM and greater than 100 nM, respectively. Further, the Clblood in data set [1] is 10.7 mL/min/kg. The Fmax in data set [1] is 52%.

With `O=C1NN=C(c2ccc(-c3cnn(C(F)F)c3)c(C(F)(F)F)c2)CO1` [Example 146, 5-{4-[1-(Difluoromethyl)-1H-pyrazol-4-yl]-3-(trifluoromethyl)phenyl}-3,6-dihydro-2H-1,3,4-oxadiazin-2-one], the IC50 in the data set with DK-MG cells was 12 nM; in the data set with HeLa cells, 2 nM; in the data set on HS578T cells, 20 nM; in the data set on SK-MEL-3 cells, 2 nM; with Hs 578T cells it was 28 nM. Further, the Clblood in data set [1] was 8.83 mL/min/kg. In addition, the Fmax in data set [1] is 60%.
